The values that follow are results of earlier work, collected in patent US6951654B2, “Intravaginal drug delivery devices for the administration of an antimicrobial agent” (Galen (Chemicals) Limited, priority 2001, dated 2005).

For this data set the following is noted: at 20° C.; Merck Index.

Structures are written as SMILES.

With `Cc1ncc([N+](=O)[O-])n1CCO` [metronidazole, 2-methyl-5-nitro-1H-imidazole-1-ethanol], the solubility in water is reported as 1 g per 100 ml.
